Assay results reported in US9695155B2, “Herbicidal substituted pyrimidinyloxy benzene compounds” (E. I. DU PONT DE NEMOURS AND COMPANY, priority 2013, dated 2017).

Columns and labels:
[1] = test system: corn; test: Test A preemergence; format: in vivo, Zea mays
Outline: (§1)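 Scoring: eye-based comparison with untreated controls, 0 for no effect through 100 for complete control, at about day 10. Treatments: directed soil spray preemergence; foliar spray postemergence on 2–10 cm plants at the one- to two-leaf stage. Medium: loam soil with sand.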

[2] = test system: barnyardgrass; test: Test A postemergence; format: in vivo, Echinochloa crus-galli; conditions: Echinochloa crus-galli, post-emergence, 240 h, read-out: Plant response rating, Barnyardgrass
Outline: as §1

[3] = test system: corn; test: Test A postemergence; format: in vivo, Zea mays; conditions: Zea mays, post-emergence, 240 h
Outline: as §1

[4] = test system: Italian ryegrass; test: Test C preemergence; format: in vivo, Lolium multiflorum; conditions: Lolium multiflorum, pre-emergence
Outline: (§2)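 Sown in loam/sand → sprayed pre-emergence; or grown to 1–4 leaves in peat mix → sprayed post-emergence. Same solvent/surfactant formulation both ways. Greenhouse 13–15 d. Score 0–100 visual.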

[5] = test system: wheat, winter; test: Test C preemergence; format: in vivo, Triticum aestivum; conditions: Triticum aestivum, pre-emergence
Outline: as §2

[6] = test system: morningglory; test: Test C preemergence; format: in vivo, Ipomoea coccinea; conditions: Ipomoea, pre-emergence
Outline: as §2

[7] = test system: soybean; test: Test C preemergence; format: in vivo, Glycine max; conditions: Glycine max, pre-emergence
Outline: as §2

[8] = test system: velvetleaf; test: Test C preemergence; format: in vivo, Abutilon theophrasti; conditions: Abutilon theophrasti, pre-emergence
Outline: as §2

[9] = test system: wheat, winter; test: Test C postemergence; format: in vivo, Triticum aestivum
Outline: as §2

[10] = test system: galium; test: Test C postemergence; format: in vivo, Galium aparine; conditions: Galium, post-emergence
Outline: as §2

[11] = test system: yellow nutsedge; test: Test C postemergence; format: in vivo, Cyperus esculentus
Outline: as §2

[12] = test system: ragweed; test: Test C postemergence; format: in vivo, Ambrosia elatior
Outline: as §2

[13] = test system: barnyardgrass; test: Test C postemergence; format: in vivo, Echinochloa crus-galli; conditions: Echinochloa crus-galli, post-emergence
Outline: as §2

[14] = test system: waterhemp; test: Test C postemergence; format: in vivo, Amaranthus rudis
Outline: as §2

[15] = test system: wild oat; test: Test C postemergence; format: in vivo, Avena fatua; conditions: Avena fatua, post-emergence
Outline: as §2

[16] = 125 g ai/ha, 0 to 100 scale, 0 no effect, 100 complete control
[17] = 500 g ai/ha, 0 to 100 scale where 0 is no effect and 100 is complete control
[18] = 31 g ai/ha, postemergence, visual rating, scale 0 to 100 (0 no effect, 100 complete control), 13 to 15 days

With N#Cc1cccc(Oc2ncc(Cl)cn2)c1-n1cc(OCC(F)(F)F)cn1 [Compound 274, 3-[(5-chloro-2-pyrimidinyl)oxy]-2-[4-(2,2,2-trifluoroethoxy)-1H-pyrazol-1-yl]benzonitrile] the “Corn plant response rating (0 to 100 scale)” value ([1]; 125 g ai/ha) was 50, the plant injury at 500 g/ha ([1]; Zea mays, pre-emergence, 240 h, 500 g ai/ha, 0 to 100 scale where 0 is no effect and 100 is complete control, read-out: Corn plant response rating) was 50% and the pest or weed control at 125 g/ha [2, 16] was 90%. For the same compound, the pest or weed control at 500 g/ha [2, 17] was 100%, the Corn plant response rating (crop injury, 0 = no effect, 100 = complete kill) at 125 g/ha [3, 16] was 80% and the Corn plant response rating (crop injury, 0 = no effect, 100 = complete kill) at 500 g/ha [3, 17] was 90%. For the same compound, the pest or weed control at 16 g/ha ([4]; 16 g ai/ha, preemergence, scale 0 to 100 (0 no effect, 100 complete control), read-out: Ryegrass, Italian plant response rating) was 25%, the pest or weed control at 125 g/ha ([4]; 125 g ai/ha, preemergence, scale 0 (no effect) to 100 (complete control), read-out: Ryegrass, Italian plant response rating) was 90% and the pest or weed control at 62 g/ha ([4]; Preemergence, 62 g ai/ha, scale 0 to 100, 0 no effect, 100 complete control, read-out: Plant response rating, Ryegrass, Italian) was 90%. The plant injury at 16 g/ha ([5]; 16 g ai/ha, preemergence, scale 0 to 100 (0 no effect, 100 complete control), read-out: Wheat plant response rating) was 20%, the plant injury at 125 g/ha ([5]; 125 g ai/ha, preemergence, scale 0 (no effect) to 100 (complete control), read-out: Wheat plant response rating) was 90% and the plant injury at 62 g/ha ([5]; Preemergence, 62 g ai/ha, scale 0 to 100, 0 no effect, 100 complete control, read-out: Plant response rating, Wheat) was 90%. The pest or weed control at 16 g/ha ([6]; 16 g ai/ha, preemergence, scale 0 to 100 (0 no effect, 100 complete control), read-out: Morningglory plant response rating) was 35%, the pest or weed control at 125 g/ha ([6]; 125 g ai/ha, preemergence, scale 0 (no effect) to 100 (complete control), read-out: Morningglory plant response rating) was 100% and the pest or weed control at 62 g/ha ([6]; Preemergence, 62 g ai/ha, scale 0 to 100, 0 no effect, 100 complete control, read-out: Plant response rating, Morningglory) was 100%. The plant injury at 16 g/ha ([7]; 16 g ai/ha, preemergence, scale 0 to 100 (0 no effect, 100 complete control), read-out: Soybean plant response rating) was 35%, the plant injury at 125 g/ha ([7]; 125 g ai/ha, preemergence, scale 0 (no effect) to 100 (complete control), read-out: Soybean plant response rating) was 98% and the plant injury at 62 g/ha ([7]; Preemergence, 62 g ai/ha, scale 0 to 100, 0 no effect, 100 complete control, read-out: Plant response rating, Soybean) was 95%. It also gave a pest or weed control at 16 g/ha ([8]; 16 g ai/ha, preemergence, scale 0 to 100 (0 no effect, 100 complete control), read-out: Velvetleaf plant response rating) of 80%, a pest or weed control at 125 g/ha ([8]; 125 g ai/ha, preemergence, scale 0 (no effect) to 100 (complete control), read-out: Velvetleaf plant response rating) of 100% and a pest or weed control at 62 g/ha ([8]; Preemergence, 62 g ai/ha, scale 0 to 100, 0 no effect, 100 complete control, read-out: Plant response rating, Velvetleaf) of 100%. For the same compound, the “Wheat plant response rating” value [9, 18] was 5, the plant injury at 16 g/ha ([9]; Triticum aestivum, post-emergence, 16 g ai/ha, postemergence, 0 is no effect, 100 is complete control, read-out: Plant response rating (0 to 100), Wheat) was 5% and the plant injury at 125 g/ha ([9]; Triticum aestivum, post-emergence, 125 g ai/ha, postemergence, visual rating, scale 0 to 100 (0 no effect, 100 complete control), read-out: Plant response rating, Wheat) was 15%. It also gave a plant injury at 62 g/ha ([9]; Triticum aestivum, post-emergence, Postemergence, 62 g ai/ha, scale 0 to 100 (0 no effect, 100 complete control), 13 to 15 days, read-out: Plant response rating, Wheat) of 5%, a pest or weed control at 16 g/ha ([10]; 16 g ai/ha, postemergence, 0 is no effect, 100 is complete control, read-out: Plant response rating (0 to 100), Galium) of 70% and a pest or weed control at 31 g/ha ([10]; 31 g ai/ha, postemergence, visual rating, scale 0 to 100 (0 no effect, 100 complete control), 13 to 15 days, read-out: Galium plant response rating) of 80%. The pest or weed control at 125 g/ha ([10]; 125 g ai/ha, postemergence, visual rating, scale 0 to 100 (0 no effect, 100 complete control), read-out: Plant response rating, Galium) was 98%, the pest or weed control at 62 g/ha ([10]; Postemergence, 62 g ai/ha, scale 0 to 100 (0 no effect, 100 complete control), 13 to 15 days, read-out: Plant response rating, Galium) was 90% and the “Nutsedge, Yellow plant response rating” value [11, 18] was 5. For the same compound, the pest or weed control at 16 g/ha ([11]; Cyperus, post-emergence, 16 g ai/ha, postemergence, 0 is no effect, 100 is complete control, read-out: Plant response rating (0 to 100), Nutsedge, Yellow) was 10%, the pest or weed control at 125 g/ha ([11]; Cyperus, post-emergence, 125 g ai/ha, postemergence, visual rating, scale 0 to 100 (0 no effect, 100 complete control), read-out: Plant response rating, Nutsedge, Yellow) was 10% and the pest or weed control at 62 g/ha ([11]; Cyperus, post-emergence, Postemergence, 62 g ai/ha, scale 0 to 100 (0 no effect, 100 complete control), 13 to 15 days, read-out: Plant response rating, Nutsedge, Yellow) was 20%. The “Ragweed plant response rating” value [12, 18] was 60, the pest or weed control at 16 g/ha ([12]; Ambrosia artemisiifolia, post-emergence, 16 g ai/ha, postemergence, 0 is no effect, 100 is complete control, read-out: Plant response rating (0 to 100), Ragweed) was 50% and the pest or weed control at 125 g/ha ([12]; Ambrosia artemisiifolia, post-emergence, 125 g ai/ha, postemergence, visual rating, scale 0 to 100 (0 no effect, 100 complete control), read-out: Plant response rating, Ragweed) was 75%. For the same compound, the pest or weed control at 62 g/ha ([12]; Ambrosia artemisiifolia, post-emergence, Postemergence, 62 g ai/ha, scale 0 to 100 (0 no effect, 100 complete control), 13 to 15 days, read-out: Plant response rating, Ragweed) was 40%, the pest or weed control at 16 g/ha ([13]; 16 g ai/ha, postemergence, 0 is no effect, 100 is complete control, read-out: Plant response rating (0 to 100), Barnyardgrass) was 5% and the pest or weed control at 31 g/ha ([13]; 31 g ai/ha, postemergence, visual rating, scale 0 to 100 (0 no effect, 100 complete control), 13 to 15 days, read-out: Barnyardgrass plant response rating) was 10%. For the same compound, the pest or weed control at 125 g/ha ([13]; 125 g ai/ha, postemergence, visual rating, scale 0 to 100 (0 no effect, 100 complete control), read-out: Plant response rating, Barnyardgrass) was 15%, the pest or weed control at 62 g/ha ([13]; Postemergence, 62 g ai/ha, scale 0 to 100 (0 no effect, 100 complete control), 13 to 15 days, read-out: Plant response rating, Barnyardgrass) was 10% and the “Waterhemp plant response rating” value [14, 18] was 85. It also gave a pest or weed control at 16 g/ha ([14]; Amaranthus tuberculatus, post-emergence, 16 g ai/ha, postemergence, 0 is no effect, 100 is complete control, read-out: Plant response rating (0 to 100), Waterhemp) of 70%, a pest or weed control at 125 g/ha ([14]; Amaranthus tuberculatus, post-emergence, 125 g ai/ha, postemergence, visual rating, scale 0 to 100 (0 no effect, 100 complete control), read-out: Plant response rating, Waterhemp) of 98% and a pest or weed control at 62 g/ha ([14]; Amaranthus tuberculatus, post-emergence, Postemergence, 62 g ai/ha, scale 0 to 100 (0 no effect, 100 complete control), 13 to 15 days, read-out: Plant response rating, Waterhemp) of 95%. For the same compound, the pest or weed control at 16 g/ha ([15]; 16 g ai/ha, postemergence, 0 is no effect, 100 is complete control, read-out: Plant response rating (0 to 100), Oat, Wild) was 30%, the pest or weed control at 125 g/ha ([15]; 125 g ai/ha, postemergence, visual rating, scale 0 to 100 (0 no effect, 100 complete control), read-out: Plant response rating, Oat, Wild) was 30% and the pest or weed control at 62 g/ha ([15]; Postemergence, 62 g ai/ha, scale 0 to 100 (0 no effect, 100 complete control), 13 to 15 days, read-out: Plant response rating, Oat, Wild) was 35%.
